Data as given in ChEMBL document CHEMBL4422610, “HDAC as onco target: Reviewing the synthetic approaches with SAR study of their inhibitors” (Eur J Med Chem, 2018).
Each block holds one compound with its values, some of them ahead of it.

Legend:
[1] = target: T1, Protein deacetylase HDAC6 (Homo sapiens, UniProt Q9UBN7); test: Inhibition of HDAC6 in human HeLa nuclear extract using Boc-Lys(acetyl)-AMC as substrate measured after 30 mins by fluorescence assay; format: cell-free
T1 sequence (Q9UBN7 whole entry): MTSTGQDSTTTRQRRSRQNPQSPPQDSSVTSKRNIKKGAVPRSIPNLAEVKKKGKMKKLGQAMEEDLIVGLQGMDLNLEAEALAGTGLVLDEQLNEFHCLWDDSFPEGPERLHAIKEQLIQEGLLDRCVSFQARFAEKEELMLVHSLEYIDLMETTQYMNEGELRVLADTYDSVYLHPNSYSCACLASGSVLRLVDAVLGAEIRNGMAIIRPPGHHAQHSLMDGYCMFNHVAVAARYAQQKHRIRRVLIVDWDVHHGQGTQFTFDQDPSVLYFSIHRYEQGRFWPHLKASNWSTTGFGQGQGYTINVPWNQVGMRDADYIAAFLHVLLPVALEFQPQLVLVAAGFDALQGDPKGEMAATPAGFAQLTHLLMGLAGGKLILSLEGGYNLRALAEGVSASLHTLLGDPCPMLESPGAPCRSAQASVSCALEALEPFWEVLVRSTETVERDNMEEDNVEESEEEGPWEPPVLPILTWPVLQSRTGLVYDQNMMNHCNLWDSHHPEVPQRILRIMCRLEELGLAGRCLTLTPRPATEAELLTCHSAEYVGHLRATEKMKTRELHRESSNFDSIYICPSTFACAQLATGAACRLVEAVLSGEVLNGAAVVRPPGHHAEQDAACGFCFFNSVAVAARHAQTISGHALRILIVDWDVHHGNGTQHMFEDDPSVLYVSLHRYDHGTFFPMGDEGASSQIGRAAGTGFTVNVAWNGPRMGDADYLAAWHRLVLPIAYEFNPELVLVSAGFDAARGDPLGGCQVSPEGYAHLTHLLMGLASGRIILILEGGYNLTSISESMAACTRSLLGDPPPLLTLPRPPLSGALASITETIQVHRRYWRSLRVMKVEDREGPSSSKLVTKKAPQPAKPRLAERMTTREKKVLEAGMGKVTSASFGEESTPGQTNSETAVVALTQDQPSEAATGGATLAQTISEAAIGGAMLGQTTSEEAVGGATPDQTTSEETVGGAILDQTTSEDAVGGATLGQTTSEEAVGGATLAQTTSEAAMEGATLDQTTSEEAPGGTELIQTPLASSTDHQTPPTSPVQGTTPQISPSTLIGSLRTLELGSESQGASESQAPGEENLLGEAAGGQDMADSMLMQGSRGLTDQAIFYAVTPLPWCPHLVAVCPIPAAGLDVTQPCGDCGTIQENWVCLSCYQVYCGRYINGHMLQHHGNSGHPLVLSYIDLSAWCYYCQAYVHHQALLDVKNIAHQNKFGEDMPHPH

Histone deacetylase 8 [2] = target: T2, Histone deacetylase 8 (Homo sapiens, UniProt Q9BY41); test: Inhibition of HDAC8 in human HeLa nuclear extract using Boc-Lys(acetyl)-AMC as substrate measured after 30 mins by fluorescence assay; format: cell-free
T2 sequence (Q9BY41 whole entry): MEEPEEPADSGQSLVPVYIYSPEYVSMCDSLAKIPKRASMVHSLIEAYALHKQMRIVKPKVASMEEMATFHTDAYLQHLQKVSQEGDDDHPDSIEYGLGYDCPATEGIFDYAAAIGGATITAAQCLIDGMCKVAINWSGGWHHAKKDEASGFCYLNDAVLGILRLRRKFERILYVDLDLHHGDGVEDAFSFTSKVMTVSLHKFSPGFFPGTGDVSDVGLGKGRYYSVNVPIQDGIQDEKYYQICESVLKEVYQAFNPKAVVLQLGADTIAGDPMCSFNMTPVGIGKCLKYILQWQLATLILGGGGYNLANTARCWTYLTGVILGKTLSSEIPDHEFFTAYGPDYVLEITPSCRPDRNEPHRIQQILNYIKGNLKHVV

[3] = target: T1, Protein deacetylase HDAC6; test: Inhibition of recombinant full-length human N-terminal GST-tagged HDAC6 expressed in baculovirus infected Sf9 insect cells using fluorescent-labelled Arg-His-Lys-Lys(Ac) as substrate measured after 2 hrs by fluorescence assay
Histone deacetylase [4] = format: cell-based, Homo sapiens; conditions: hela
Histone deacetylase [5] = format: cell-based, Homo sapiens; conditions: hela; remark: listed apart in the source
Histone deacetylase 2 = Histone deacetylase 2 (Homo sapiens, UniProt Q92769)
Histone deacetylase 8 [6] = target: T2, Histone deacetylase 8; test: Inhibition of HDAC8 (unknown origin) expressed in Escherichia coli using BML-KI-178 as substrate preincubated up to 3 hrs and measured after 35 mins by fluorescence assay
[7] = target: Histone deacetylase 3/Nuclear receptor corepressor 2 (HDAC3/NCoR2) (Homo sapiens, UniProt O15379); test: Inhibition of human recombinant full length C-terminal His-tagged HDAC3 (1 to 428 residues)/N-terminal GST-tagged NCOR2 (395 to 489 residues) expressed in insect cells using Boc-l-Lys(Ac)-AMC as substrate preincubated up to 3 hrs and measured after 35 mins by fluorescence assay
Histone deacetylase 1 [8] = target: T3, Histone deacetylase 1 (Homo sapiens, UniProt Q13547); test: Inhibition of recombinant human FLAG/His-tagged HDAC1 expressed in baculovirus expression system using Boc-l-Lys(Ac)-AMC as substrate preincubated up to 3 hrs and measured after 35 mins by fluorescence assay
Histone deacetylase 1 [9] = target: T3, Histone deacetylase 1; test: Inhibition of HDAC1 (unknown origin) using (FAM)-labeled acetylated peptide as substrate measured after 17 hrs by fluorescence assay
Histone deacetylase 4 = Histone deacetylase 4 (Homo sapiens, UniProt P56524); test: Inhibition of recombinant human HDAC4 expressed in HEK293T cells using Ac-KGLGK(Ac)-MCA as substrate measured after 30 mins by fluorescence assay
MCF7 = test: cells; conditions: Homo sapiens, MCF7, 48 h
Histone deacetylase 1 [10] = target: T3, Histone deacetylase 1; test: Inhibition of recombinant human HDAC1 expressed in HEK293T cells using Ac-KGLGK(Ac)-MCA as substrate measured after 30 mins by fluorescence assay
[11] = target: T4, Protein deacetylase HDAC6 (Mus musculus, UniProt Q9Z2V5); test: Inhibition of recombinant mouse HDAC6 expressed in HEK293T cells using Ac-KGLGK(Ac)-MCA as substrate measured after 30 mins by fluorescence assay
T4 sequence (Q9Z2V5 whole entry): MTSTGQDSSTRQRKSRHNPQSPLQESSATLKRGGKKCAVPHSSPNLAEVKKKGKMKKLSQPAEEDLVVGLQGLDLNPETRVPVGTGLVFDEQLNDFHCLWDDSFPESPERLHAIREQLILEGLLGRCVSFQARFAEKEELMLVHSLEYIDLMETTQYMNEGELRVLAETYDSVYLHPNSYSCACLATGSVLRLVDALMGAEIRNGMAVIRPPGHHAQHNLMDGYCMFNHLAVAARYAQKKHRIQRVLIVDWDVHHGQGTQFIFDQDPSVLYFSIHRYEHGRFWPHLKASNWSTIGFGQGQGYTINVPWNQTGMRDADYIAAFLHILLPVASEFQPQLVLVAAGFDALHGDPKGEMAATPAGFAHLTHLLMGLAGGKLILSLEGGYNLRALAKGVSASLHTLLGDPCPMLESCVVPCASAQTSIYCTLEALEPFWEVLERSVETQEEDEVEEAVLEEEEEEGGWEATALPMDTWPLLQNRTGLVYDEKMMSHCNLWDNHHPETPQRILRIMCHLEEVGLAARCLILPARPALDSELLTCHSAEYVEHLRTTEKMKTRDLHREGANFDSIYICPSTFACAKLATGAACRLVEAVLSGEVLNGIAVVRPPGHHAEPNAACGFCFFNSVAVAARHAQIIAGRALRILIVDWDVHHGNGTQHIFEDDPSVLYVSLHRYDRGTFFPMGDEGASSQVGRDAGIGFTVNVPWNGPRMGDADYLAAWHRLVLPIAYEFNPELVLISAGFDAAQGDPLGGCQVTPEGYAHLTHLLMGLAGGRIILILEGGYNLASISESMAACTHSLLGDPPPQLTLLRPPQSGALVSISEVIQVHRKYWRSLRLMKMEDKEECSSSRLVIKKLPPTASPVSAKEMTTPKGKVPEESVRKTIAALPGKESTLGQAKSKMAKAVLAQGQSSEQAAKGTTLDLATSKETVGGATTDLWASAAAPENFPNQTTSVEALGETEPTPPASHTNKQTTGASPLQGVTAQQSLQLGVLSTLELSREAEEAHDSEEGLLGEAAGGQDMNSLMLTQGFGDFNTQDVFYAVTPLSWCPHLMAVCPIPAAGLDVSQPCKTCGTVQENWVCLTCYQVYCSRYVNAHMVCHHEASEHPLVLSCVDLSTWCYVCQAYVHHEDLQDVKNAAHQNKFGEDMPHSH

HeLa = test: cells; conditions: Homo sapiens, 48 h
K562 = test: cells; conditions: Homo sapiens, K562, 48 h
[12] = target: T1, Protein deacetylase HDAC6; test: Inhibition of HDAC6 (unknown origin)
Histone deacetylase 1 [13] = target: T3, Histone deacetylase 1; test: Inhibition of HDAC1 (unknown origin)
Histone deacetylase 8 [14] = target: T2, Histone deacetylase 8; test: Inhibition of HDAC8 (unknown origin)
MDA-MB-231 = test: cells; conditions: Homo sapiens

Sequence of Histone deacetylase 2 (Q92769 whole entry): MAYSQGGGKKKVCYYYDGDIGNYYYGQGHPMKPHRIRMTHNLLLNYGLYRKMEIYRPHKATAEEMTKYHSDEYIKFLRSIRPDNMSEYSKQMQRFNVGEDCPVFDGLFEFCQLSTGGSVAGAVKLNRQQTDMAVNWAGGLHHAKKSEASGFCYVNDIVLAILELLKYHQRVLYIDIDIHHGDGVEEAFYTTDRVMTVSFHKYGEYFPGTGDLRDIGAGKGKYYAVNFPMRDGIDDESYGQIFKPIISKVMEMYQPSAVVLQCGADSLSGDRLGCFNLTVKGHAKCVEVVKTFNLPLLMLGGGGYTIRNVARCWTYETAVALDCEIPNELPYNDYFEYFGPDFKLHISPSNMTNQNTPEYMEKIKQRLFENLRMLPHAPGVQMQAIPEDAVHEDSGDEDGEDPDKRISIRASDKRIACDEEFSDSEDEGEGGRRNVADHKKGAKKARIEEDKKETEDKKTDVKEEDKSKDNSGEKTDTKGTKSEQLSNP
Sequence of Histone deacetylase 3/Nuclear receptor corepressor 2 (HDAC3/NCoR2) (O15379 whole entry, the tested form may be a part): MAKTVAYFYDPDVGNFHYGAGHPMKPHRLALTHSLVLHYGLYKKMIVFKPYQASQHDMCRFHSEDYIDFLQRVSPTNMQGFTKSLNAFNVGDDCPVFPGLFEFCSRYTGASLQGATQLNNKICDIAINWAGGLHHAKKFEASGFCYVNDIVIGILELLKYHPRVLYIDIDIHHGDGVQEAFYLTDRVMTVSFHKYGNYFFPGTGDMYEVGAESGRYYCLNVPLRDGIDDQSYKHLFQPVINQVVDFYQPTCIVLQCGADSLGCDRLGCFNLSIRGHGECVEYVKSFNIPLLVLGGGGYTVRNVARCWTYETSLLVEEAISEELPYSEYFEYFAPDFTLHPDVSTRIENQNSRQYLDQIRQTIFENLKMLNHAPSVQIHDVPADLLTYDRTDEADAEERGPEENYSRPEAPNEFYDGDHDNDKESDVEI
Sequence of Histone deacetylase 3/Nuclear receptor corepressor 2 (HDAC3/NCoR2) (Q9Y618 whole entry, further chain, the tested form may be a part): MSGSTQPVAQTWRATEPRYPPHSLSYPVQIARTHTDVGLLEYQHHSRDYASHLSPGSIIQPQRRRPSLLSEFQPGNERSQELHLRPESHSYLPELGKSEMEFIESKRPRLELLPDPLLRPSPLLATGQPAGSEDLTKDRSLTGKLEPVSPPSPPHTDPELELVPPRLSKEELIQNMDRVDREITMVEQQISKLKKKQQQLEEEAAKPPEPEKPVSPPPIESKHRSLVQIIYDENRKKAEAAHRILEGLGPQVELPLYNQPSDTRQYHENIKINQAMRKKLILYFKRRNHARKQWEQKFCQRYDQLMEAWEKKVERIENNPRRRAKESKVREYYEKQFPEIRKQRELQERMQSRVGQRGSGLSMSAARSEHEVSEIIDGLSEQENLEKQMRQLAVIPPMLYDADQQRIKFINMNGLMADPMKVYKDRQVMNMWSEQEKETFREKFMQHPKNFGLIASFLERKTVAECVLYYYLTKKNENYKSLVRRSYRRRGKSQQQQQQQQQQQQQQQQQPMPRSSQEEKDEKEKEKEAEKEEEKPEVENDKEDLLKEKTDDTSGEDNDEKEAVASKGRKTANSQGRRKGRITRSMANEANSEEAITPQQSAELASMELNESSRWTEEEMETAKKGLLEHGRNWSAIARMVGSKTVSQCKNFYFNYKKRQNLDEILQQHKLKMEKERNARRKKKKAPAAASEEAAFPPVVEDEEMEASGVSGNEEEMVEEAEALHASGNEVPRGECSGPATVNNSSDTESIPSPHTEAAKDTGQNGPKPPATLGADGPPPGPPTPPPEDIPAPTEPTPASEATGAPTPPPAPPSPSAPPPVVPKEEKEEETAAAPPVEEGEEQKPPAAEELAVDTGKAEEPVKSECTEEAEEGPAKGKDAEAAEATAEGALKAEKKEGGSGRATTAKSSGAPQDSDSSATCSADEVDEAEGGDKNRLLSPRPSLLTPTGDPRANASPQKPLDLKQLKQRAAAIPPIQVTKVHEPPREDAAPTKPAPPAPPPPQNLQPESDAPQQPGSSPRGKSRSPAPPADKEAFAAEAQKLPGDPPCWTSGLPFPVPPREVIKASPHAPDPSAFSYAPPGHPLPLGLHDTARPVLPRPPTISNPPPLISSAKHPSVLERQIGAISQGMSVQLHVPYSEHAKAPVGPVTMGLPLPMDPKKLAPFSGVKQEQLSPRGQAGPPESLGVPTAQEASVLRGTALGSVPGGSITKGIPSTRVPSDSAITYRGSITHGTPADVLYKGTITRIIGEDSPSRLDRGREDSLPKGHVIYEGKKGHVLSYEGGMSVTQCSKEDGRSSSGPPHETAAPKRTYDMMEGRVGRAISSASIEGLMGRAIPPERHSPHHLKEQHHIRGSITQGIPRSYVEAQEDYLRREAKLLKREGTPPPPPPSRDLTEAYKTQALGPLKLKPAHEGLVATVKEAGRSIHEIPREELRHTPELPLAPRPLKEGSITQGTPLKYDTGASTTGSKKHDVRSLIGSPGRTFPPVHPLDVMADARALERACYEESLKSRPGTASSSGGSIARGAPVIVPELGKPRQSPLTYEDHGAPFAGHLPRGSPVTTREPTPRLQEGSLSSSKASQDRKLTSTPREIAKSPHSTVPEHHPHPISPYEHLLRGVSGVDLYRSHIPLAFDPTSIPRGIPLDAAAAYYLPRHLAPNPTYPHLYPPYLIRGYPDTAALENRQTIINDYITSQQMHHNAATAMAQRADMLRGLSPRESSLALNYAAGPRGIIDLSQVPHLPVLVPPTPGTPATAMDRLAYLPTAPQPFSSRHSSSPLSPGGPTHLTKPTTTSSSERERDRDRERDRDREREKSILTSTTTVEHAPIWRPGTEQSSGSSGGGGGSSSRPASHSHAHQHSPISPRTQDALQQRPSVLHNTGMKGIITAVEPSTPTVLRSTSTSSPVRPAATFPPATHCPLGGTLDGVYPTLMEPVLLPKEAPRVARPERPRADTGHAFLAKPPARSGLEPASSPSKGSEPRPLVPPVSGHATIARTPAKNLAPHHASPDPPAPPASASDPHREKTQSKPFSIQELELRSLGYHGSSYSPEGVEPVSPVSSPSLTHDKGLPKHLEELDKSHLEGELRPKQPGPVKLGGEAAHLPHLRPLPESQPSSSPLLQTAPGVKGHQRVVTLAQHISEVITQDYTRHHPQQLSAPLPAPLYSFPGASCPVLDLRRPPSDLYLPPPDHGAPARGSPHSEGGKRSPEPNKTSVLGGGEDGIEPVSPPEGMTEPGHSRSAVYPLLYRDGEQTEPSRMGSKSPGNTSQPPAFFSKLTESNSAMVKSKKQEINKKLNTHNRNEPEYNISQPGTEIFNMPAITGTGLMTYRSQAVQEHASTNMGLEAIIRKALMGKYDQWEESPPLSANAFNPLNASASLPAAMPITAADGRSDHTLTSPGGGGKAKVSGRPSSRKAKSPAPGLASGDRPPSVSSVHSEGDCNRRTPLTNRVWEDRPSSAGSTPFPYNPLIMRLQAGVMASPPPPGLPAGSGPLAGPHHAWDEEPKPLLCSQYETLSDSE
T3 sequence (Q13547 whole entry): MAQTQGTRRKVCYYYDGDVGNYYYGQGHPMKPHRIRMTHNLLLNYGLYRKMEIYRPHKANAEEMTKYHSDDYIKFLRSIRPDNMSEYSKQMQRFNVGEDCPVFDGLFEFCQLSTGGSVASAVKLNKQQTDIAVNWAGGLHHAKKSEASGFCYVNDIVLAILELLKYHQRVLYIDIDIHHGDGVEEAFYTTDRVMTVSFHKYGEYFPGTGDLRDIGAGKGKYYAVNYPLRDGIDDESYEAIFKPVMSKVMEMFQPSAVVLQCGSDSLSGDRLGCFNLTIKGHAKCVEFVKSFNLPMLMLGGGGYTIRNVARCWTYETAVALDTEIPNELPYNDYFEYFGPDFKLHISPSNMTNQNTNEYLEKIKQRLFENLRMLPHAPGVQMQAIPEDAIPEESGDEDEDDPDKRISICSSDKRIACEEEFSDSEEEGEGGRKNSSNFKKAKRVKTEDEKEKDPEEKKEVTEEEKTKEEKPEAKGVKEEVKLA
Sequence of Histone deacetylase 4 (P56524 whole entry): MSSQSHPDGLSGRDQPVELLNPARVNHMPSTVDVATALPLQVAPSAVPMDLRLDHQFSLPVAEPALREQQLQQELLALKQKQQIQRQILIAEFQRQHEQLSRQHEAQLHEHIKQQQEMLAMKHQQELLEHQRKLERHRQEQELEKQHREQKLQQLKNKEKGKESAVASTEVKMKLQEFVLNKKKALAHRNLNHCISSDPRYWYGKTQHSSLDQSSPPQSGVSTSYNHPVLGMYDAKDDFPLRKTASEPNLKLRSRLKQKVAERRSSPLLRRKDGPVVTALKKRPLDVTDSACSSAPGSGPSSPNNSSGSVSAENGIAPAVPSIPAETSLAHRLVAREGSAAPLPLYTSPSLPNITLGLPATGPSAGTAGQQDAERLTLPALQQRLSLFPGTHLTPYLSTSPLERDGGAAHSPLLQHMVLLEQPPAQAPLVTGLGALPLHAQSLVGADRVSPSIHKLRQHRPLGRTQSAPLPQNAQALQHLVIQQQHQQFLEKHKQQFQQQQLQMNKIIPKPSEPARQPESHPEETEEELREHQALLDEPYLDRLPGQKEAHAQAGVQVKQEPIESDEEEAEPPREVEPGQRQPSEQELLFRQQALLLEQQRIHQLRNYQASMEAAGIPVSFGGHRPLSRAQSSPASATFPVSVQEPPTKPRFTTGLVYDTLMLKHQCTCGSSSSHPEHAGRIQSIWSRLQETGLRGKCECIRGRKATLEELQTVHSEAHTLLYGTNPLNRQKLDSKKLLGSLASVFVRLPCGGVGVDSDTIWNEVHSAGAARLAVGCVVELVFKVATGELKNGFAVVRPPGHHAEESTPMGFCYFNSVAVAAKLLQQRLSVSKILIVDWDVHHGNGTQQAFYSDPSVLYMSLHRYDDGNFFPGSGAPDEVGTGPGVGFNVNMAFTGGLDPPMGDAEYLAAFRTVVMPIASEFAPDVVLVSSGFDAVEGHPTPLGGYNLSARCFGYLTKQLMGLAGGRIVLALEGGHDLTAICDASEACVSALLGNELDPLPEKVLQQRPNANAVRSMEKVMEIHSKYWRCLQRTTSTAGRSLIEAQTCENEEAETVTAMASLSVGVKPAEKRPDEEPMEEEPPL

SMILES: CC(CNC(=O)c1ccc(/C=C/C(=O)NO)cc1)Oc1no[n+]([O-])c1S(=O)(=O)c1ccccc1 (stereo not given)
IC50 [1]: 280 nM
IC50 (Histone deacetylase 8 [2]): 420 nM

SMILES: O=C(/C=C/c1ccc(C(=O)NCCCOc2no[n+]([O-])c2S(=O)(=O)c2ccccc2)cc1)NO
IC50 [1]: 230 nM
IC50 (Histone deacetylase 8 [2]): 460 nM

SMILES: Cc1c(CN(C)C)c2ccccc2n1-c1ccc(C(=O)NO)cc1
IC50 [3]: 1.25 nM

SMILES: CCn1cnc(-c2ccc(OC)cc2)c1-c1ccc(/C=C/C(=O)NO)cc1
IC50 (Histone deacetylase [4]): 36 nM
IC50 (Histone deacetylase [5]): 504 nM

SMILES: CC1CCCCC12NC(=O)[C@H](CCCCCC(=O)NO)NC(=O)[C@H]1CCCN1C(=O)[C@H](Cc1ccccc1)NC2=O (stereo not given in full)
IC50 (Histone deacetylase 4): 6 nM
IC50 (MCF7): 31 nM
IC50 (Histone deacetylase 1 [10]): 10 nM
IC50 [11]: 130 nM
IC50 (HeLa): 309 nM
IC50 (K562): 876 nM

SMILES: C[C@]12CC[C@@H]3c4ccc(O)cc4CC[C@H]3[C@@H]1CC[C@@]2(O)c1cn(CCCCC(=O)NO)nn1
IC50 [12]: 8 nM
IC50 (Histone deacetylase 1 [13]): 15 nM
IC50 (Histone deacetylase 8 [14]): 11000 nM

SMILES: CCN(CC)c1ccc(C(=O)NO)cc1
IC50 [3]: 6280 nM

SMILES: O=C(NO)c1ccc(N2CCCC2)cc1
IC50 [3]: 540 nM

SMILES: CC1CCCC2(C1)NC(=O)[C@H](CCCCCC(=O)NO)NC(=O)[C@H]1CCCN1C(=O)[C@H](Cc1ccccc1)NC2=O (stereo not given in full)
IC50 (Histone deacetylase 4): 14 nM
IC50 (MCF7): 26 nM
IC50 (Histone deacetylase 1 [10]): 15 nM
IC50 [11]: 160 nM
IC50 (HeLa): 48 nM
IC50 (K562): 104 nM

SMILES: CNCCOc1no[n+]([O-])c1S(=O)(=O)c1ccccc1
IC50 [1]: 160 nM
IC50 (Histone deacetylase 8 [2]): 260 nM

SMILES: C[C@]12CC[C@@H]3c4ccc(O)cc4CC[C@H]3[C@@H]1CC[C@@]2(O)c1cn(CCCCCCC(=O)NO)nn1
IC50 [12]: 32 nM
IC50 (Histone deacetylase 1 [13]): 75 nM
IC50 (Histone deacetylase 8 [14]): 4000 nM

Further lines, results first:

IC50 (Histone deacetylase 2): 665 nM
IC50 (Histone deacetylase 8 [6]): 400 nM
IC50 [7]: 128 nM
IC50 (Histone deacetylase 1 [8]): 168 nM
SMILES: O=C(CCCCCCCNC(=O)c1c(-c2ccc(O)cc2)sc2cc(O)ccc12)NO

IC50 (Histone deacetylase 1 [9]): > 30000 nM
SMILES: Nc1ccccc1NC(=O)CCCCCCC(=O)Nc1cccc(-c2cn(-c3ccccc3)nn2)c1

IC50 (Histone deacetylase 2): 1820 nM
IC50 (Histone deacetylase 8 [6]): 29900 nM
IC50 [7]: 748 nM
IC50 (Histone deacetylase 1 [8]): 1030 nM
SMILES: O=C(CCCCCCn1cc(-c2ccc(C(=O)c3c(-c4ccc(O)cc4)sc4cc(O)ccc34)cc2)nn1)NO

IC50 [12]: 13 nM
IC50 (Histone deacetylase 1 [13]): 28 nM
IC50 (Histone deacetylase 8 [14]): 450 nM
SMILES: C[C@]12CC[C@@H]3c4ccc(O)cc4CC[C@H]3[C@@H]1CC[C@@]2(O)c1cn(CCCCCCCC(=O)NO)nn1

IC50 (Histone deacetylase 2): 2440 nM
IC50 (Histone deacetylase 8 [6]): 719 nM
IC50 [7]: 214 nM
IC50 (Histone deacetylase 1 [8]): 596 nM
SMILES: O=C(CCCCCCNC(=O)c1c(-c2ccc(O)cc2)sc2cc(O)ccc12)NO

IC50 (MDA-MB-231): 2140 nM
SMILES: O=C(CCCCCCC(=O)Nc1ccccc1)NO [VORINOSTAT]

IC50 (Histone deacetylase 2): 19200 nM
IC50 (Histone deacetylase 8 [6]): 23500 nM
IC50 [7]: 5740 nM
IC50 (Histone deacetylase 1 [8]): 839 nM
SMILES: O=C(CCCCCn1cc(-c2ccc(C(=O)c3c(-c4ccc(O)cc4)sc4cc(O)ccc34)cc2)nn1)NO
